# According to EP4656640A1, “IRAK4 DEGRADER AND USE THEREOF” (Shanghai Qilu Pharmaceutical Research and Development …, priority 2023, dated 2024):
# Like-named read-outs stand apart in the source and are kept apart here.
# What was measured:
# IRAK4 [1] = biological target: T1, IRAK4 (Homo sapiens, UniProt Q9NWZ3); assay: Degradation of IRAK4 in monocytes of human PBMCs (flow cytometry); assay type: cell-based; set-up: endogenous in cells; conditions: human PBMC monocytes, 24 hours incubation
# T1 sequence (Q9NWZ3 1-460): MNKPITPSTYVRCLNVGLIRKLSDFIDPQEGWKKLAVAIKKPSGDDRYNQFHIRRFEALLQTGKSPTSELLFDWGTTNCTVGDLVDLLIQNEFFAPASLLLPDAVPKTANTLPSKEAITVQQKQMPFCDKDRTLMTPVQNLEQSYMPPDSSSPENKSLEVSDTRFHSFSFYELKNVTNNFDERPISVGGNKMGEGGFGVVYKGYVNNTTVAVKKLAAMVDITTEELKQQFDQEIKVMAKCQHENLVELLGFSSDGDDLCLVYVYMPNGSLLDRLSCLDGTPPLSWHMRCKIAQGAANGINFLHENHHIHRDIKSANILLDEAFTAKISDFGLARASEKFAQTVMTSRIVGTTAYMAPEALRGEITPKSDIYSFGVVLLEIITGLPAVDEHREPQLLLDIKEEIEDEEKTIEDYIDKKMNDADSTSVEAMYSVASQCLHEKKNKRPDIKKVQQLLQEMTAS
# Procedure: The degradation level of IRAK4 in monocytes of human peripheral blood mononuclear cells (hPBMCs) was detected by flow cytometry.
# On day 1, the cells were seeded at a density of 2 × 10^5 cells per well in 100 µL in a 96-well plate.
# The compounds were dissolved in DMSO to a final concentration of 10 mM, and then diluted with culture medium at a 1:5 concentration gradient to prepare 10 concentrations. The diluted solutions were added to the cells to obtain a maximum final concentration of 2 µM. Wells containing cells treated with 0.1% DMSO served as the positive control
# The cells were incubated at 37°C in a 5% CO2 incubator for 24 hours.
# The cells were stained for viability discrimination using the LIVE/DEAD™ Fixable Blue Dead Cell Stain Kit, and surface staining of monocytes was performed with PE Mouse Anti-Human CD14, followed by incubation at 4°C for 30 minutes.
# Fix buffer I, equal in volume to the cultured cells, was added, and the cells were fixed at 37°C for 10 minutes.
# 150 µL of Perm III reagent was added, and the cells were incubated at 4°C for 30 minutes to permeabilize the membranes.
# Flow cytometry analysis was performed using a flow cytometer.
# The flow cytometry data were analyzed using Flowjo software. Data presentation and DC50 calculation were performed using Prism 8.0.2 (GraphPad).
# IL-6 secretion = assay: Inhibition of induced IL-6 secretion in human PBMCs (CBA); assay type: cell-based; conditions: PBMC
# Procedure: The effect of PROTAC small molecules on inflammatory factors in PBMCs downstream of IRAK4 induced by TLR and IL-1 was detected based on the CBA (cytometric bead array) method.
# Step 2: The density of PBMCs was adjusted to 1 E6/mL, and 150 µL of PBMCs in 1640 complete medium were seeded into a 96-well plate, followed by incubation at 37°C for 1 hour.
# Step 3: 50 µL of serially diluted small molecule (working concentration: 10000 nM, 1:3 dilution) drugs were inoculated into the plate in a 37°C incubator for 8 hours.
# Step 4: 10 µL of stimulants were added respectively, with final concentrations of 100 ng/mL for LPS, 1 µg/mL for R848, and 100 ng/mL for IL-1β.
# Step 5: CBA assay. The concentrations of IL-6 and TNF-α in the cell culture supernatant were determined using Hu IL-6 CBA Flex Set A7 and Hu TNF- CBA Flex Set D9.
# Step 6: Standard samples were prepared: 2500 pg/mL, 1250 pg/mL,...0. A 1:2 serial dilution was performed to obtain 10 concentrations.
# Step 7: The mixed capture beads were resuspended in capture bead diluent (1:50), and cell culture supernatant (50 µL) was added, followed by incubation at room temperature for 10 minutes.
# Step 8: The detection reagent prepared with detection diluent was added, and the mixture was incubated in the dark at room temperature for 3 hours. At the end of incubation, the samples were washed once with wash buffer and resuspended for detection.
# The concentrations of IL-6 and TNFα were calculated using the standard curve method. Data presentation and IC50 calculation were performed using Prism 8.0.2.
# IRAK4 [2] = biological target: T2, IRAK4 (Mus musculus, UniProt Q8R4K2); assay: In vivo degradation of IRAK4 in mouse spleen, IL-33 model (LC-MS); set-up: species or system C57BL/6J mice; conditions: Example 22 at 50 mpk, comparable drug concentrations in the spleen, FIG. 2
# T2 sequence (Q8R4K2 1-459): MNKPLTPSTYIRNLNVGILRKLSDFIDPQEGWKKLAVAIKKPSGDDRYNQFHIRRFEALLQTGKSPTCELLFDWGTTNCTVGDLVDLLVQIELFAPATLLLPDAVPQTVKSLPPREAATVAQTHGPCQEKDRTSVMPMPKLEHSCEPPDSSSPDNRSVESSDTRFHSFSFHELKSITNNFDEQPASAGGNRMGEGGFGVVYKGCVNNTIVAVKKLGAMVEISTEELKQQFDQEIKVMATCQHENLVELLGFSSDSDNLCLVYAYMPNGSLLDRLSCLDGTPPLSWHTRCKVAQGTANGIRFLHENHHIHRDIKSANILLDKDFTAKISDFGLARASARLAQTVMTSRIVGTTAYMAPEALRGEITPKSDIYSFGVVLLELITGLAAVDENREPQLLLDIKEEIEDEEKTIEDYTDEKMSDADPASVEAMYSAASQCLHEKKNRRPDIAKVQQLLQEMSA
# [3] = IL-1β 100 ng/mL, read-out: IC50 of compounds against induced secretion, IL-6, IL-1β
# [4] = LPS 100 ng/mL, read-out: IC50 of compounds against induced secretion, IL-6, LPS
# [5] = R848 1 µg/mL, read-out: IC50 of compounds against induced secretion, IL-6, R848
SMILES,DC50 (IRAK4 [1]) [pM],IC50 (IL-6 secretion; [3]) [pM],IC50 (IL-6 secretion; [4]) [pM],IC50 (IL-6 secretion; [5]) [pM],degradation effect of IRAK4 in mouse spleen compared with KT-474 at 150 mpk (IRAK4 [2])
Cn1c(=O)n(C2CCC(=O)NC2=O)c2cccc(C#CCOC34CCC(CN5CCC6(CC5)CC(n5cc(NC(=O)c7cnn8ccc(N9C[C@H]%10C[C@@H]9CO%10)nc78)c(C(F)F)n5)C6)(CC3)CC4)c21 (stereo partly drawn) [Example 52],650,8900,8400,20300,–
Cn1c(=O)n(C2CCC(=O)NC2=O)c2cccc(C#CCCN3CCC4(CC3)CC(n3cc(NC(=O)c5cnn6ccc(N7C[C@H]8C[C@@H]7CO8)nc56)c(C(F)F)n3)C4)c21 (stereo partly drawn) [Example 22],130,1000,500,160,2-3 times
